The source of these data is patent publication US8882877B2, “Boron-containing synergistic urea and preparation method and application thereof” (Beijing J-Tec Technology Co., Ltd, priority 2012, dated 2014).

The subject of one test is celery. The experiment in a line: Celery fertilizer test (equivalent and decrement fertilizer). In kind it is in vivo. An excerpt: Test Three: Celery Fertilizer Test 1. Test material: The tested fertilizer is the boron-containing synergistic urea developed and supplied by Beijing J-Tec Technology Co., Ltd. (the boron-containing synergistic urea (1) in Embodiment 3) while the control fertilizer is ordinary small granular urea and large granular urea in line with national standards: the tested vegetable is celery. Area under jurisdiction of […], Shandong Province 3. Test Method: equivalent fertilizer test area and decrement fertilizer test area are arranged, two treatment areas are provided in each test area, and each treatment area is arranged repeatedly for 3 times, ranked in random area and group. Treatment Area 1: the boron-containing synergistic urea is applied, calculated by 70 kg per mu, and flushed together with water after emergence of seedlings; Treatment Area 2: ordinary small granular urea (as a control area, ck), calculated by 70 kg per mu, and flushed together with water after emergence of seedlings. Treatment Area 1: the boron-containing synergistic urea is applied with a decrement of 20%, calculated by 56 kg per mu, base fertilizer and additional fertilizer each makes up 50%; Treatment Area 2: ordinary large granular urea, calculated by 70 kg per mu, base fertilizer and additional fertilizer each makes up 50%. 4. Test Requirement: The celery in each treatment area is harvested, weighed, and calculated separately during each collection and harvest. No other fertilizer is applied during the whole test period, and other cultivation and management measures are the same.

The next test relates to tomato. Briefly: Tomato fertilizer test (equivalent and decrement fertilizer). In kind it is in vivo. An excerpt: Test Four: Tomato Fertilizer Test
Test Site Laiyang: City, Shandong Province.
Grow seedling in greenhouse at Feb. 24, 2011, and plant in the greenhouse with a tomato plantation density of 4200 plant/mu.
(§1) 1. The tested fertilizer is the boron-containing synergistic urea developed and supplied by Beijing J-Tec Technology Co., Ltd. (the boron-containing synergistic urea (1) in Embodiment 3, under a trade name of “polypeptide chelated potassium”) while the control fertilizer is ordinary small granular urea and large granular urea in line with national standards; the tested vegetable is tomato (variety of “Millennium”, ? ).
(§2) 2. Test Method: equivalent fertilizer test area and decrement fertilizer test area are arranged, two treatment areas are provided in each test area, and each treatment area is arranged repeatedly for 3 times, ranked in random area and group, each treatment area has an area of 20 m^2 (5 m long, 4 m wide).
Treatment Area 1: the boron-containing synergistic urea is applied, calculated by 70 kg per mu, and flushed together with water after emergence of seedlings;
Treatment Area 2: ordinary small granular urea (as a control area, ck), calculated by 70 kg per mu, and flushed together with water after emergence of seedlings.
Treatment Area 1: the boron-containing synergistic urea is applied with a decrement of 20%, calculated by 56 kg per mu, base fertilizer and additional fertilizer each makes up 50%;
Treatment Area 2: ordinary large granular urea (as a control area, ck), calculated by 70 kg per mu, base fertilizer and additional fertilizer each makes up 50%.
3. Test Requirement: The tomato in each treatment area is harvested, weighed, and calculated separately during each collection and harvest. No other fertilizer is applied during the whole test period, and other cultivation and management measures are the same.
Select one plot (12 plots in total, indicated as 1st plot, 2nd plot and 3rd plot corresponding to each test) randomly from each treatment area 1 and treatment area 2 (control area) respectively, all are 1 m long, 1.45 m wide, and the harvested tomato is weighed on site, and results are as follows: […]

For another test, the system named is soybean. The experiment in a line: Soybean fertilizer field plot test. In kind it is in vivo. The text has this:
Test One: Soybean Fertilizer Test During the process of growth, the moisture and temperature are basically normal, which have no particular influence on the test. The basic information for the test plot is: mound albic soil, organic matter content 3.73%, and thickness of black soil layer is 18-20 cm, 1. The tested fertilizer is the boron-containing synergistic urea developed and supplied by Beijing J-Tec Technology Co., Ltd. (the boron-containing synergistic urea (1) in Embodiment 3) while the control fertilizer is ordinary urea available in the market. 2. Field tests adopt plot test (the test plot is located in Haluo Town, […], Shandong Province), three test areas are provided, each test area is divided into three treatment areas, each treatment area is 25.2 m^2, and the three test areas are tested in parallel. Apply base fertilizers uniformly in each test area and sow 4 rows in each treatment area, and subsequently apply additional fertilizers in the three treatment areas as below: Treatment Area 1: additionally apply 5 kg boron-containing synergistic urea once per mu in the flowering and pod bearing period of the soybean; Treatment Area 2: additionally apply 4 kg boron-containing synergistic urea once per mu in the flowering and pod bearing period of the soybean; Treatment Area 3 (control area, ck): additionally apply 5 kg ordinary urea once per mu in the flowering and pod bearing period of the soybean as a control; 4. Adopt normal field management in the growth period of the soybean, harvest and monitor the yield in the mature period respectively, and take the average values of the corresponding treatment areas in the three test areas as the statistical results, see Table 1.

For another test, the system named is rape. Briefly: Rape fertilizer test (topdressing). In kind it is in vivo. The settings on record: topdressing 20 kg per mu. The text has this: Test Two: Rape Fertilizer Test 1. Test Material: The tested fertilizer is the boron-containing synergistic urea developed and supplied by Beijing J-Tec Technology Co., Ltd. (the boron-containing synergistic urea (1) in Embodiment 3) while the control fertilizer is ordinary urea available in the market. Nanyang site: Yuanxiang Village, Nanyang Town, Qidong City of Jiangsu Province, an area of 4 mu, rape variety is “Shi Li Jia ? )”. Lvsi site: Nanxinqiao Village, […] Town, Qidong City, an area of 5 mu. 3. Test Method: the boron-containing synergistic urea is used as a topdressing fertilizer (additional fertilizer), 20 kg per mu; while the control field adopts ordinary urea (commercially available), 20 kg per mu. 4. Assessment Content: prior to harvest, field assessments such as density, plant height, effective branch, yield structure are conducted; after harvest, recount the actual yield, and the results are shown in Table 3.

In another test the test system is bacterial wilt. Briefly: Tomato disease resistance: incidence of bacterial wilt. In kind it is in vivo. The settings on record: tomato plants in test area vs control area (ck).
From the text: as §1, §2
1. Tomato Growing Potential and Disease Resistance

A further test has as its system apple tree. Briefly: Apple tree fertilizer test (equivalent and decrement fertilizer). In kind it is in vivo, apple tree (Red Fuji apple). The settings on record: Control Test Area, ordinary urea 70 kg per mu. The text has this: Test Five: Apple Tree Fertilizer Test 1. Test Fertilizer: the tested fertilizer is the boron-containing synergistic urea developed and supplied by Beijing J-Tec Technology Co., Ltd. (the boron-containing synergistic urea (1) in Embodiment 3) while the control fertilizer is ordinary small granular urea and large granular urea in line with national standards the tested fruit tree is apple tree (variety of “Red Fuji apple”, ? ). 2. Test Site: […], Shandong Province, 3. Tested Variety: apple tree of four years old, variety is Red Fuji apple, planting space is 2 m×3 m, plants with moderate growth, similar tree vigor, and substantially consistent yield, and conventional orchard management is conducted before the test. 4. Test Method: equivalent fertilizer test area and decrement fertilizer test area are arranged, two treatment areas are provided in each test area, 3 tested plants are included in each treatment area and each treatment area is arranged repeatedly for 3 times, ranked in random area and group; The fertilizer is applied in small holes near the plants, and the fertilizing periods are fertilizer application after leaves falling in autumn and additional fertilizer application during fruit expanding period (July and August). Treatment Area 1: the boron-containing synergistic urea is applied, calculated by 70 kg per mu, and flushed together with water; Treatment Area 2: ordinary small granular urea (as a control area, ck), calculated by 70 kg per mu, and flushed together with water. Treatment Area 1: the boron-containing synergistic urea is applied with a decrement of 20%, calculated by 56 kg per mu, base fertilizer and additional fertilizer each makes up 50%; Treatment Area 2: ordinary large granular urea (as a control area, ck), calculated by 70 kg per mu, base fertilizer and additional fertilizer each makes up 50%. Make statistical analysis to flowering numbers and petal numbers in each flower during full-blossom period in spring, and make statistical analysis to fruit setting percentage after full-blossom period and before flower thinning. Measure and record once a month after growth of new shoots; Pick 30 fruits randomly from different portions after fruit ripening, and weigh the single fruit with an electronic balance scale, measure the longitudinal diameter and the transverse diameter with a vernier caliper; observe the fruit surface and the coloring of the fruit; determine the hardness of fruit with a hardometer.

Setting [1] is: Decrement fertilizer test (56 kg per mu) and its control (70 kg per mu).
Where [2] appears, read: Decrement fertilizer test (synergistic urea 56 kg per mu) and its control (large granular urea 70 kg per mu).
[3] abbreviates: Equivalent fertilizer test and its control, 70 kg per mu.
The mark [4] stands for this setting: Equivalent fertilizer test and its control, 70 kg per mu, flushed with water.
Where [5] appears, read: Treatment Area 1 / 3 (ck): 5 kg per mu.
[6] abbreviates: Treatment Area 1 / 3 (ck): 5 kg per mu once in flowering and pod bearing period.
The mark [7] stands for this setting: Lvsi site, two months after fertilizer application.
Setting [8] is: Nanyang site, two months after fertilizer application.

In the case of `NC(N)=O` [ordinary large granular urea, urea], in the test with celery (20% decrement fertilizer test, 1st plot, synergistic urea 56 kg per mu, control large granular urea 70 kg per mu), the Yield is 6.8 kg. Further, in the test with celery (20% decrement fertilizer test, 2nd plot, synergistic urea 56 kg per mu, control large granular urea 70 kg per mu), the Yield turned out to be 6.0 kg. The Yield in the test on celery (20% decrement fertilizer test, 3rd plot, synergistic urea 56 kg per mu, control large granular urea 70 kg per mu) was 5.7 kg. Moreover, in the test with celery (20% decrement fertilizer test, three plots in total, synergistic urea 56 kg per mu, control 70 kg per mu), the Yield is given as 18.5 kg. Moreover, the “observation of celery leaves” value in the test with celery (Decrement fertilizer test, 30 days after sowing) is “green and thin leaves”. Further, in the test on tomato (setting [1]), the “Average Yield among three plots” value amounted to 116.0 kg and the “Average Yield per mu” value is 3896.7 kg. Moreover, in the test on tomato (setting [2]), the “Yield 1st plot” value is recorded as 114.3 kg, the “Yield 2nd plot” value was found to be 118.1 kg and the “Yield 3rd plot” value turned out to be 115.6 kg.

For the compound `NC(N)=O` [ordinary small granular urea, urea], the Yield in the test on celery (Equivalent fertilizer test, 70 kg per mu, 1st plot (1 m x 1.45 m), 52 days after applying fertilizer) is reported as 6.6 kg. In the test with celery (Equivalent fertilizer test, 70 kg per mu, 2nd plot, 52 days after applying fertilizer), the Yield worked out at 7.5 kg. Further, in the test with celery (Equivalent fertilizer test, 70 kg per mu, 3rd plot, 52 days after applying fertilizer), the Yield stood at 8.15 kg. Further, in the test with celery (Equivalent fertilizer test, 70 kg per mu, three plots in total), the Yield stood at 22.25 kg. For the same compound, in the test with tomato (setting [3]), the “Average Yield among three plots” value turned out to be 114.5 kg and the “Average Yield per mu” value is 3863.3 kg. Moreover, in the test on tomato (setting [4]), the “Yield 1st plot” value is listed as 111.6 kg, the “Yield 2nd plot” value worked out at 113.8 kg and the “Yield 3rd plot” value is given as 118.0 kg.

On to `NC(N)=O` [ordinary urea, urea], for which, in the test on soybean (setting [5]), the “Practical Yield” value came out at 131.8 kg/mu and the “Theoretical Yield” value came out at 134.5 kg/mu. Also, in the test with soybean (setting [6]), the “100-Grain Weight” value stood at 15.7 g, the “Diseased Grain Rate” value was found to be 9.7%, the “Grains Weight” value turned out to be 7.5 g/Plant and the “Grains per Plant” value is on record as 65.8 Grains/Plant. In the test with soybean (setting [6]), the “Plant Height” value amounted to 77.4 cm, the “Unfilled Grains” value is given as 28.9 Grains/Plant, the “Worm Eaten Rate” value stood at 17.9% and the “pods per plant” value turned out to be 30.1 Pods/Plant. In the test with rape (Average of the two test sites), the “1000-Grain Weight” value is listed as 4.1 g, the Density was determined as 5550 plant, the “Effective Branch” value stood at 27 each and the Grains per pod was found to be 19.8 grain. Moreover, in the test with rape (Average of the two test sites), the “Plant Height” value came out at 190.5 cm, the Yield is given as 262.7 kg/mu and the pods per plant came out at 583 pod. The Yield with rape (Lvsi site) is reported as 251.7 kg/mu. Moreover, in the test on rape (setting [7]), the “1000-Grain Weight” value came out at 3.7 g, the Density stood at 5550 plant, the “Effective Branch” value was 26 each and the Grains per pod came out at 20.5 grain. For the same compound, in the test on rape (setting [7]), the “Plant Height” value worked out at 185 cm and the pods per plant stood at 598 pod. Besides, the Yield in the test on rape (Nanyang site) came out at 269.5 kg/mu. In the test on rape (setting [8]), the “1000-Grain Weight” value is 4.5 g, the Density amounted to 5550 plant, the “Effective Branch” value is on record as 28 each and the Grains per pod is 19 grain. Moreover, in the test with rape (setting [8]), the “Plant Height” value came out at 196 cm and the pods per plant is listed as 568 pod. In the test with bacterial wilt, the “incidence of bacterial wilt” value was 4.54%. Moreover, in the test with apple tree, the “Fruit Setting Percentage” value is on record as 74.6%, the “Increment of New Shoots” value was 34.50 cm, the “Leaf Weight” value was determined as 79.74 g and the “Single Fruit Weight” value was 202.1 g.
